Read-outs that look alike come from different tables or passages of the source.
Tested on: Mycosphaerella graminicola; Anamorph: Septoria tritici; Bayer Code SEPTTR
Test: Leaf blotch of wheat, foliar fungicide treatment, one day protectant (1DP) or three day curative (3DC)
Assay type: in vivo, Septoria tritici on wheat plants (variety Yuma)
Details: Zymoseptoria tritici; for pest or weed control at 200 ppm / pest or weed control at 50 ppm: % disease control rating
[1] = 24 h, one day protectant (1DP), 25 ppm, rating of percent disease control, read-out: SETTTR 1DP 25 ppm
[2] = 24 h, one day protectant (1DP), rating of percent disease control, read-out: SEPTTR 1DP 100 ppm
[3] = 72 h, three day curative (3DC), 25 ppm, rating of percent disease control, read-out: SEPTTR 3DC 25 ppm
[4] = 72 h, three day curative (3DC), rating of percent disease control, read-out: SEPTTR 3DC 100 ppm
[5] = 24 h, one day protectant (1DP), 25 ppm, percent disease control rating, read-out: SETTTR 1DP 25 ppm
[6] = 24 h, one day protectant (1DP), percent disease control rating, read-out: SEPTTR 1DP 100 ppm
[7] = 72 h, three day curative (3DC), 25 ppm, percent disease control rating, read-out: SEPTTR 3DC 25 ppm
[8] = 72 h, three day curative (3DC), percent disease control rating, read-out: SEPTTR 3DC 100 ppm
[9] = 24 h, one day protectant (1DP), 25 ppm (first 1DP column), percent control rating, read-out: SETTTR 1DP 25 ppm
[10] = 24 h, one day protectant (1DP), 25 ppm as printed (second 1DP column), percent control rating, read-out: SETTTR 1DP 25 ppm
[11] = 72 h, three day curative (3DC), 25 ppm, percent control rating, read-out: SEPTTR 3DC 25 ppm
[12] = 72 h, three day curative (3DC), percent control rating, read-out: SEPTTR 3DC 100 ppm
[13] = 24 h, one day protectant, 25 ppm, rating of percent disease control, read-out: SETTTR 1DP 25 ppm
[14] = 24 h, one day protectant, rating of percent disease control, read-out: SEPTTR 1DP 100 ppm
[15] = 72 h, three day curative, 25 ppm, rating of percent disease control, read-out: SEPTTR 3DC 25 ppm
[16] = 72 h, three day curative, rating of percent disease control, read-out: SEPTTR 3DC 100 ppm

What does the source list for `COc1ccccc1COc1ncc(F)c(NC(=S)Nc2ccccc2F)n1` [Compound 239]?
pest or weed control at 25 ppm [1]: 76 to 100%; pest or weed control at 100 ppm [2]: 76 to 100%; pest or weed control at 25 ppm [3]: 51 to 75%; pest or weed control at 100 ppm [4]: 76 to 100%

With `CCCCCOC(=O)Nc1nc(OCc2cccc(F)c2)ncc1F` [Compound 762] as the compound, how does the pest or weed control at 25 ppm [1] read?
Its pest or weed control at 25 ppm is 76 to 100%.

And the pest or weed control at 100 ppm [2]?
The pest or weed control at 100 ppm was 76 to 100%.

What about the pest or weed control at 25 ppm [3] of the same compound?
Its pest or weed control at 25 ppm is 76 to 100%.

What about the pest or weed control at 100 ppm [4] of the same compound?
The pest or weed control at 100 ppm was 76 to 100%.

Which pest or weed control at 25 ppm [1] does the source give for `COc1ccc(COc2ncc(F)c(NCO)n2)cc1F` [Compound 216] here?
The pest or weed control at 25 ppm was 76 to 100%.

And the pest or weed control at 100 ppm [2]?
Its pest or weed control at 100 ppm is 76 to 100%.

And the pest or weed control at 25 ppm [3]?
Its pest or weed control at 25 ppm is 51 to 75%.

What about the pest or weed control at 100 ppm [4] of the same compound?
The pest or weed control at 100 ppm was 76 to 100%.

With `CC[Si](CC)(CC)Nc1nc(OCc2ccc(F)cc2)ncc1F` [Compound 8, [5-Fluoro-2-(4-fluorobenzyloxy)pyrimidin-4-yl]triethylsilanylamine] as the compound, how does the pest or weed control at 25 ppm [5] read?
Its pest or weed control at 25 ppm is 76 to 100%.

And the pest or weed control at 100 ppm [6]?
Its pest or weed control at 100 ppm is 76 to 100%.

What about the pest or weed control at 25 ppm [7] of the same compound?
Its pest or weed control at 25 ppm is 76 to 100%.

And the pest or weed control at 100 ppm [8]?
Its pest or weed control at 100 ppm is 76 to 100%.

What does the source list for `COc1ncc(F)c(/N=N/c2ccccc2Cl)n1` [Compound 1110]?
pest or weed control at 25 ppm [9]: 0 to 25%; pest or weed control at 25 ppm [10]: 0 to 25%; pest or weed control at 25 ppm [11]: 0 to 25%; pest or weed control at 100 ppm [12]: 0 to 25%

For `Fc1cnc(OCc2cccc(Cl)c2)nc1NC1CC1` [Compound 887], which pest or weed control at 200 ppm (24 h, one day protectant) is on record?
Its pest or weed control at 200 ppm is 76 to 100%.

With `Nc1nc(OCC2Cc3ccccc3O2)ncc1F` (centres unmarked) [Compound 219] as the compound, how does the pest or weed control at 25 ppm [1] read?
The pest or weed control at 25 ppm was 51 to 75%.

What about the pest or weed control at 100 ppm [2] of the same compound?
The pest or weed control at 100 ppm was 76 to 100%.

And the pest or weed control at 25 ppm [3]?
The pest or weed control at 25 ppm was 0 to 25%.

What about the pest or weed control at 100 ppm [4] of the same compound?
Its pest or weed control at 100 ppm is 51 to 75%.

`Fc1cnc(OCCc2ccccc2)nc1NCc1ccc(Cl)nc1` [Compound 880] was tested. Which pest or weed control at 50 ppm (24 h, one day protectant) did it give?
Its pest or weed control at 50 ppm is 0 to 25%.

What about the pest or weed control at 200 ppm (24 h, one day protectant) of the same compound?
Its pest or weed control at 200 ppm is 26 to 50%.

How did the pest or weed control at 25 ppm [13] turn out when `COc1cccc(COc2ncc(F)c(N)n2)c1OC` [Compound 609] was run?
The pest or weed control at 25 ppm was 76 to 100%.

What about the pest or weed control at 100 ppm [14] of the same compound?
The pest or weed control at 100 ppm was 76 to 100%.

What about the pest or weed control at 25 ppm [15] of the same compound?
Its pest or weed control at 25 ppm is 76 to 100%.

What about the pest or weed control at 100 ppm [16] of the same compound?
Its pest or weed control at 100 ppm is 76 to 100%.

How did the pest or weed control at 50 ppm (24 h, one day protectant) turn out when `Cc1ccc(COc2ncc(F)c(NC3CC3)n2)cc1` [Compound 881] was run?
Its pest or weed control at 50 ppm is 76 to 100%.

And the pest or weed control at 200 ppm (24 h, one day protectant)?
The pest or weed control at 200 ppm was 76 to 100%.

`C/C(=N\Oc1nc(OCc2ccccc2)ncc1F)c1cnc(OCC(F)(F)F)nc1` [Compound 990] was tested. Which pest or weed control at 25 ppm [9] did it give?
The pest or weed control at 25 ppm was 0 to 25%.

What about the pest or weed control at 25 ppm [10] of the same compound?
The pest or weed control at 25 ppm was 0 to 25%.

What about the pest or weed control at 25 ppm [11] of the same compound?
The pest or weed control at 25 ppm was 0 to 25%.

And the pest or weed control at 100 ppm [12]?
Its pest or weed control at 100 ppm is 0 to 25%.

How did the pest or weed control at 25 ppm [1] turn out when `Nc1nc(OCc2cscn2)ncc1F` [Compound 275] was run?
Its pest or weed control at 25 ppm is 76 to 100%.

What about the pest or weed control at 100 ppm [2] of the same compound?
The pest or weed control at 100 ppm was 76 to 100%.

And the pest or weed control at 25 ppm [3]?
Its pest or weed control at 25 ppm is 76 to 100%.

What about the pest or weed control at 100 ppm [4] of the same compound?
The pest or weed control at 100 ppm was 76 to 100%.

With `CCOCNc1nc(OCc2ccccc2)ncc1F` [Compound 753] as the compound, how does the pest or weed control at 25 ppm [1] read?
Its pest or weed control at 25 ppm is 76 to 100%.

What about the pest or weed control at 100 ppm [2] of the same compound?
Its pest or weed control at 100 ppm is 76 to 100%.

What about the pest or weed control at 25 ppm [3] of the same compound?
Its pest or weed control at 25 ppm is 76 to 100%.

And the pest or weed control at 100 ppm [4]?
The pest or weed control at 100 ppm was 76 to 100%.

How did the pest or weed control at 25 ppm [13] turn out when `COCCOC(=O)Nc1nc(OCc2cccc(C#N)c2)ncc1F` [Compound 668] was run?
The pest or weed control at 25 ppm was 26 to 50%.

And the pest or weed control at 100 ppm [14]?
The pest or weed control at 100 ppm was 76 to 100%.

And the pest or weed control at 25 ppm [15]?
The pest or weed control at 25 ppm was 76 to 100%.

What about the pest or weed control at 100 ppm [16] of the same compound?
The pest or weed control at 100 ppm was 76 to 100%.

With `Nc1nc(OCc2c(F)cc(Br)cc2F)ncc1F` [Compound 154] as the compound, how does the pest or weed control at 25 ppm [5] read?
The pest or weed control at 25 ppm was 76 to 100%.

What about the pest or weed control at 100 ppm [6] of the same compound?
The pest or weed control at 100 ppm was 76 to 100%.

What about the pest or weed control at 25 ppm [7] of the same compound?
The pest or weed control at 25 ppm was 76 to 100%.

And the pest or weed control at 100 ppm [8]?
The pest or weed control at 100 ppm was 76 to 100%.

For `Cc1cc(Oc2ncc(F)c(N)n2)cc(C)n1` [Compound 296], which pest or weed control at 25 ppm [1] is on record?
The pest or weed control at 25 ppm was 0 to 25%.

And the pest or weed control at 100 ppm [2]?
Its pest or weed control at 100 ppm is 0 to 25%.

And the pest or weed control at 25 ppm [3]?
The pest or weed control at 25 ppm was 0 to 25%.

What about the pest or weed control at 100 ppm [4] of the same compound?
Its pest or weed control at 100 ppm is 26 to 50%.

Which results are given for `CN(C)/C=N/c1nc(OCOC(=O)c2ccccc2)ncc1F` [Compound 1085]?
pest or weed control at 25 ppm [9]: 76 to 100%; pest or weed control at 25 ppm [10]: 76 to 100%; pest or weed control at 25 ppm [11]: 76 to 100%; pest or weed control at 100 ppm [12]: 76 to 100%

Which pest or weed control at 25 ppm [1] does the source give for `O=C(Nc1nc(OCc2ccc(F)cc2)ncc1F)C(F)F` [Compound 501] here?
Its pest or weed control at 25 ppm is 76 to 100%.

And the pest or weed control at 100 ppm [2]?
The pest or weed control at 100 ppm was 76 to 100%.

And the pest or weed control at 25 ppm [3]?
Its pest or weed control at 25 ppm is 76 to 100%.

And the pest or weed control at 100 ppm [4]?
Its pest or weed control at 100 ppm is 76 to 100%.

For `CC(C)CCOc1ncc(F)c(N)n1` [Compound 731], which pest or weed control at 25 ppm [13] is on record?
The pest or weed control at 25 ppm was 0 to 25%.

And the pest or weed control at 100 ppm [14]?
Its pest or weed control at 100 ppm is 0 to 25%.

And the pest or weed control at 25 ppm [15]?
Its pest or weed control at 25 ppm is 0 to 25%.

And the pest or weed control at 100 ppm [16]?
The pest or weed control at 100 ppm was 0 to 25%.

Which results are given for `Cc1cnc(CNc2nc(OCc3ccc(Cl)cc3)ncc2F)cn1` [Compound 886]?
pest or weed control at 50 ppm (24 h, one day protectant): 76 to 100%; pest or weed control at 200 ppm (24 h, one day protectant): 76 to 100%

— patent publication US9204653B2, “5-fluoro pyrimidine derivatives” (DOW AGROSCIENCES LLC, priority 2008, dated 2015)
